These results are taken from publication PMC9950431, “A bivalent remipede toxin promotes calcium release via ryanodine receptor activation” (Nature Communications, 2023).

In assay [1] the test system is CaV2.2. As to the kind of experiment: FLIPR Ca2+ assay, inhibition of endogenous CaV2.2. The format is cell-based, human. The settings on record: for Ca2+ response relative to control response: 3 µM Xt3a pre-treatment, KCl 90 mM/CaCl2 5 mM + nifedipine 10 μM, over 300 s. The procedure:
SH-SY5Y human neuroblastoma cells (European Collection of Authenticated Cell Culture, Sigma Aldrich, 94030304-1VL) were cultured in RPMI media (ThermoFisher Scientific, Scoresby, Australia) supplemented with 15% foetal bovine serum and L-glutamine (1 mM) and passaged at approximately 80% confluency with TrypLE Express (Thermo Fisher, Australia). For fluorescence imaging, cells were plated on CellBIND (Corning) 384-well black-walled imaging plates at a density of 20,000–30,000 cells/well in complete media and cultured for 48 h at 37 °C/5% CO2.
Briefly, SH-SY5Y cells were loaded with Calcium 4 no-wash dye (Molecular Devices) diluted in physiological salt solution (composition in mM: NaCl 140, D-glucose 11.5, KCl 5.9, MgCl2 1.4, NaH2PO4 1.2, NaHCO3 5, CaCl2 1.8, HEPES 10) for 30 min at 37 °C. A two-addition FLIPR^Tetra (Molecular Devices) protocol using the following settings was used to measure fluorescence responses: excitation 470–495 nm; emission 515–575 nm; excitation intensity 80%; excitation duration 0.8 s; gain 140; read interval 1/s; read number 300/addition. Responses mediated via endogenously expressed ion channels were elicited by addition of: choline (30 μM)/PNU-120596 (10 μM) for α7 nAChR-mediated responses; nicotine (30 μM) for α3β2/α3β4 nAChR-mediated responses; KCl (90 mM)/CaCl2 (5 mM) for CaV1.3-mediated responses; KCl (90 mM)/CaCl2 (5 mM) + nifedipine (10 μM) for CaV2.2-mediated responses; vertridine (70 μM) for NaV1.2-mediated responses; and veratridine (4 μM)/OD1 (300 nM) for NaV1.7-mediated responses. Raw fluorescence readings were converted to response over baseline using the analysis tool Screenworks 3.1.1.4 (Molecular Devices) and were expressed relative to the maximum increase in fluorescence of control responses and plotted using GraphPad Prism 9.3.1.
In the cell-based FLIPR assays statistical analysis was performed using GraphPad Prism 9.3.1. Statistical significance was defined as p < 0.05, and determined by one-sample t-test assessing difference to the control value of 100%. In α7 nAChR, α3-containing nAChR, CaV1.3, CaV2.2, NaV1.2 and NaV1.7 channels (Supplementary Fig. 5B), with distribution (t) and degrees of freedom (df) being: t = 0.9683, df = 2 (α7); t = 1.338, df = 2 (α3); t = 1.775, df = 2 (NaV1.2); t = 1.478

In assay [2] the test system is RyR2. The assay is described as follows: Single channel electrophysiology of RyR2 channels inserted into lipid bilayers (exposure to peptide). Type of assay: biochemical, sheep (cardiac SR). Here is the method: Cardiac SR was prepared from mature female crossbred sheep hearts, and skeletal SR vesicles were isolated from the back and leg muscles of mature female New Zealand white rabbits[29],[54] with approval from the ANU Animal Experiment Ethics Committee Protocol Number A2015/35. […] Solutions for vesicle incorporation contained (mM): cis 230 caesium methanesulfonate (CsMS); 20 CsCl; 1 CaCl2 and 10 […] (TES) pH 7.4 and trans 30 CsMS; 20 CsCl; 1 CaCl2 10 TES; pH 7.4. […] Following incorporation, 200 mM CsMS was added to the trans solution and the cis solution exchanged with recording solution containing (mM): 230 CsMS; 20 CsCl; 0.001 CaCl2;10 TES and pH 7.4, with [Ca^2+] set by a [BAPTA] determined using a Ca^2+ electrode. The cytoplasmic and luminal solutions contained 1 μM and 1 mM Ca^2+ respectively, with symmetrical 250/250 mM CsMS. Bilayer voltage was switched between +40 mV and −40 mV (cytoplasmic voltage relative to grounded luminal solution) every 30 s. The activity of the RyR channels used here included 1 µM Ca^2+ in the cytoplasmic solution and 1 mM Ca^2+ in the luminal solution[29],[55]. Electrophysiology experiments were analysed using Channel 2 (P.W. Gage, M. Smith, Australian National University) and Channel 3 (N.W. Laver, University of Newcastle, Australia) software, available from the authors upon request. Statistical analyses were performed using Microsoft Excel (Office 365). […] Following most incorporation events, a single channel only was active in the bilayer and channel open probability (Po), mean open time (To), mean closed time (Tc) and open event frequency (Fo) were measured. When 2–4 channels were active in a bilayer, PO was approximated from the fractional mean current (I’F), i.e., mean current divided by maximum current. I’F is equal to PO in a single channel and indicates the average PO of multiple channels in a bilayer. […] Experiments at UN also included a minority of multi-channel experiments. The bilayer rigs, solution composition, source of channels, data acquisition and analyses methods were all identical.
Statistical analysis of single channel data was performed using Excel spreadsheets and embedded Students t-test functions or a sign test as indicated in the graphs in Figs. 1 and 3.

Some results are limits rather than exact numbers.

Turning to φ-Xibalbin3-Xt3a, the “Ca2+ response relative to control response” value was 99.2207% in assay [1] (replicate 1), 92.2928% in assay [1] (replicate 2) and 79.9392% in assay [1] (replicate 3). The “inhibition of Ca2+ responses” value in assay [1] (Xt3a 3 µM) is “did not inhibit Ca^2+ responses”. In assay [2], the “channel activity during exposure” value is “no significant change in activity during exposure to the toxin”. Also, the channel activity result in assay [2] (1 nM and 10 nM) is listed as “weak trend towards increased activity”. Further, the “openings to the maximum conductance” value in assay [2] (1 nM to 1 μM) is reported as “did not show any consistent changes in openings to the maximum conductance”. Also, the “substate level, % of maximum conductance” value in assay [2] (10 nM Xt3a, −40 mV, prolonged gating to substate levels) was < 50%.
